Test results: BindingDB's records for doi:10.1016/s0960-894x(98)00065-1 (University of Arizona, 1999)
pKi: −log10 of the molar value.

Assay: Compound was tested for binding affinity towards Opioid receptor delta 1 in guinea pig brain homogenates using [3H][p-Cl-Phe]-DPDPE as radioligand

Row | SMILES | pKi
1 | C[C@@H](NC(=O)[C@@H](N)Cc1ccc(O)cc1)C(=O)NCC(=O)N[C@@H](Cc1c(F)c(F)c(F)c(F)c1F)C(=O)NNC(=O)[C@H](Cc1c(F)c(F)c(F)c(F)c1F)NC(=O)CNC(=O)[C@@H](C)NC(=O)[C@@H](N)Cc1ccc(O)cc1 [Biphalin Analogue] | 8.11
2 | C[C@H](c1ccccc1)[C@H](NC(=O)CNC(=O)[C@@H](C)NC(=O)[C@@H](N)Cc1ccc(O)cc1)C(=O)NNC(=O)[C@@H](NC(=O)CNC(=O)[C@@H](C)NC(=O)[C@@H](N)Cc1ccc(O)cc1)[C@H](C)c1ccccc1 [2-Amino-N-((S)-1-{[((R)-1-{N'-[(R)-2-(2-{(S)-2-[2-amino-3-(4-hydroxy-phenyl)-propionylamino]-propionylamino}-acetylamino)-3-phenyl-butyryl]-hydrazinocarbonyl}-2-phenyl-propylcarbamoyl)-methyl]-carbamoyl}-ethyl)-3-(4-hydroxy-phenyl)-propionamide] | 6.96
3 | C[C@@H](NC(=O)[C@@H](N)Cc1ccc(O)cc1)C(=O)NCC(=O)N[C@@H](Cc1cccc2ccccc12)C(=O)NNC(=O)[C@H](Cc1cccc2ccccc12)NC(=O)CNC(=O)[C@@H](C)NC(=O)[C@@H](N)Cc1ccc(O)cc1 [Biphalin Analogue] | 8.19
4 | C[C@@H](NC(=O)[C@@H](N)Cc1ccc(O)cc1)C(=O)NCC(=O)N[C@@H](Cc1ccc2ccccc2c1)C(=O)NNC(=O)[C@H](Cc1ccc2ccccc2c1)NC(=O)CNC(=O)[C@@H](C)NC(=O)[C@@H](N)Cc1ccc(O)cc1 [Biphalin Analogue] | 8.13
5 | C[C@@H](NC(=O)[C@@H](N)Cc1ccc(O)cc1)C(=O)NCC(=O)N[C@H](C(=O)NNC(=O)[C@@H](NC(=O)CNC(=O)[C@@H](C)NC(=O)[C@@H](N)Cc1ccc(O)cc1)[C@@H](C)c1ccccc1)[C@@H](C)c1ccccc1 [2-Amino-N-((S)-1-{[((S)-1-{N'-[(S)-2-(2-{(S)-2-[2-amino-3-(4-hydroxy-phenyl)-propionylamino]-propionylamino}-acetylamino)-3-phenyl-butyryl]-hydrazinocarbonyl}-2-phenyl-propylcarbamoyl)-methyl]-carbamoyl}-ethyl)-3-(4-hydroxy-phenyl)-propionamide] | 7.96
